In patent US20240309389A1, “Chimeric FCeRI a-Chain Gene, Chimeric FCeRI a-Chain Protein, Cells, Analysis Kit and Analysis Method” (TEIKYO HEISEI UNIVERSITY, priority 2021, published 2024):

Columns and labels:
Type in all cases: cell-based, rat
RBL-NL4 cells = assay: Luciferase expression on stimulation in RBL-NL4 cells; settings: unsensitized, 250 μM, 37° C., 3 hours
Procedure: Luciferase expression of when stimulated with ionomycin, anti-human IgE antibody, or specific antigen is confirmed for each of cultures obtained by culturing the seven clones obtained in (2) above and RBL-NL4 cells. Specifically, the confirmation was carried out as follows.
On the day before the test for confirming luciferase expression when the stimulus was applied, the following operations were performed. […] The medium was placed in each well of a white 96-well plate made of plastic with a transparent bottom (product number: 165306, Thremo). Cells of each clone were then seeded at 5×10^4 cells/50 μL per well, and allowed to stand overnight in an incubator for sensitization. […]
After applying the stimulation, 50 μL/well of a substrate solution (One-Glo Luciferase Assay System, Promega) was added to each well and allowed to react for 5 minutes, and then the luminescence intensity was measured using a luminometer (GloMax, Promega).
In FIG. 7, black dots indicate the measured luciferase luminescence intensity (unit: CPS) (right axis: LUMINESCENCE (CPS)). […] The relative luminescence intensity is the relative luminescence intensity when the luminescence intensity of each clone when unstimulated is set to 1, and is shown on a log scale.

HuRa-40 cells = assay: IgE crosslinking-induced luciferase expression, inhibitor evaluation in HuRa-40 cells
Procedure: (§1) HuRa-40 cells and RS-ATL8 cells were prepared.
(§2) After washing the sensitized cells with PBS three times, […] was added and stimulated at 37° C. for 3 hours.
(§3) After the stimulation time had elapsed, Bright-Glo (Promega) substrate solution was added to each well in an amount of 50 μL/well, and reacted for 5 minutes at room temperature while shielding from light. After that, the luminescence intensity was measured with a microplate reader (GloMax, Promega).
(§4) A study similar to that described above was performed with cyclosporin A instead of omalizumab. Specifically, RS-ATL8 cells or HuRa-40 cells were added with cyclosporin A at a final concentration of 0 to 1 μg/mL, and, 30 minutes later, 50 ng/ml of human IgE was added to sensitize them overnight. After washing with PBS three times, the cells were stimulated with an anti-human IgE antibody for 3 hours, and Bright-Glo was added to measure luminescence.

RS-ATL8 cells = assay: IgE crosslinking-induced luciferase expression, inhibitor evaluation in RS-ATL8 cells
Procedure: as §1, §2, §3, §4

[1] = drug added 30 min before 50 ng/ml human IgE overnight sensitization, anti-human IgE stimulation 3 h, read from FIG. 17
[2] = omalizumab 100 μg/mL, fraction of the 0 μg/mL value

Molecule | luciferase expression level compared to anti-human IgE antibody stimulation (no IgE and aIgE) (RBL-NL4 cells) | change of luminescence intensity, concentration increased from 0.1 μg/mL to 1 μg/mL (HuRa-40 cells) | 50% inhibitory concentration (IC50) (HuRa-40 cells; [1]) | luminescence intensity at 100 μg/mL compared to 0 μg/mL (HuRa-40 cells; [2]) | change of luminescence intensity, concentration increased from 0.1 μg/mL to 1 μg/mL (RS-ATL8 cells) | change of luminescence intensity, concentration increased from 1 μg/mL to 10 μg/mL (RS-ATL8 cells) | 50% inhibitory concentration (IC50) (RS-ATL8 cells; [1]) | luminescence intensity at 100 μg/mL compared to 0 μg/mL (RS-ATL8 cells; [2])
C[C@H](CCC(=O)O)C[C@H](C)C[C@H](C)C(=O)/C=C(\O)[C@H](C)C[C@H](C)C/C=C/[C@@H](C)[C@@H](O)[C@@H](C)[C@@H](O)C[C@@H]1CC[C@@](C)([C@H]2CC[C@@](C)([C@@H](C)O)O2)O1 [ionomycin] | greatly increased | – | – | – | – | – | – | –
Omalizumab | – | significant decrease in luminescence intensity | less than 1 μg/mL | less than 1/30 | decreased slightly | further decreased | greater than 1 μg/mL | about ¼
